Test results reported in patent publication US12606543B2, “Indole derivatives as serotonergic agents useful for the treatment of disorders related thereto” (priority 2023, dated 2026).

Key:
[1] = Liver microsomes stability, human; format: in vitro ADME
Procedure: (§1) The objective of this study was to estimate in vitro metabolic stability of exemplary compounds of Formula (I) or a pharmaceutically acceptable salt, solvate, and/or prodrug thereof in pooled human, male rat, and male mouse liver microsomes. The concentrations of compounds in reaction systems were evaluated by LC-MS/MS for estimating the stability in pooled human, male rat, and male mouse liver microsomes. The in vitro intrinsic clearances of test compounds were determined as well.
(§2) A master solution in the “Incubation Plate” containing phosphate buffer, ultra-pure H2O, MgCl2 solution and liver microsomes was made according to Table 33. The mixture was pre-warmed at 37° C. water bath for 5 minutes.
(§3) 40 μL of 10 mM nicotinamide adenine dinucleotide phosphate (NADPH) solution was added to each well. The final concentration of NADPH was 1 mM. The negative control samples were prepared by replacing NADPH with 40 μL of ultra-pure H2O. Samples were prepared in duplicate. Negative controls were prepared in singlet.
(§4) The reaction was started with the addition of 4 μL of 200 μM exemplary test compounds of the disclosure or control compounds to each master solution to get the final concentration of 2 μM. This study was performed in duplicate.
(§5) Aliquots of 50 μL were taken from the reaction solution at 0, 15, 30, 45, and 60 minutes. The reaction solutions were stopped by the addition of 4 volumes of cold methanol with IS (100 nM alprazolam, 200 nM imipramine, 200 nM labetalol, and 2 μM ketoprofen). Samples were centrifuged at 3,220 g for 40 minutes. Aliquot of 90 μL of the supernatant was mixed with 90 μL of ultra-pure H2O and then was used for LC-MS/MS analysis.
(§6) LC/MS analysis was performed for all samples from this study using a Shimadzu liquid chromatograph separation system equipped with degasser DGU-20A5R; solvent delivery unit LC-30AD; system controller SIL-30AC; column oven CTO-30A; CTC Analytics HTC PAL System. Mass spectrometric analysis was performed using a Triple Quad™ 5500 instrument.
(§7) All calculations were carried out using Microsoft Excel. Peak area ratios of test compound to internal standard (listed in the below table) were determined from extracted ion chromatograms.
(§8) All calculations were carried out using Microsoft Excel. Peak areas were determined from extracted ion chromatograms. The slope value, k, was determined by linear regression of the natural logarithm of the remaining percentage of the parent drug vs. incubation time curve.
(§9) The in vitro half-life (in vitro t1/2) was determined from the slope value:
(§10) Conversion of the in vitro t1/2 (min) into the in vitro intrinsic clearance (in vitro CLint, in μL/min/mg proteins) was done using the following equation (mean of duplicate determinations): […]
as §1, with “solvate” for “solvate,”, “rat” for “rat,”
(§11) A master solution in the “Incubation Plate” containing phosphate buffer, ultra-pure H2O, MgCl2 solution and liver microsomes was made according to Table 67. The mixture was pre-warmed at 37° C. water bath for 5 minutes.
(§12) 40 μL of 10 mM NADPH solution was added to each well. The final concentration of NADPH was 1 mM. The negative control samples were prepared by replacing NADPH with 40 μL of ultra-pure H2O. Samples were prepared in duplicate. Negative controls were prepared in singlet
Aliquots of 50 μL were taken from the reaction solution at 0, 15, 30, 45 and 60 minutes. The reaction solutions were stopped by the addition of 4 volumes of cold methanol with IS (100 nM alprazolam, 200 nM imipramine, 200 nM labetalol and 2 μM ketoprofen).

[2] = Liver microsomes stability, mouse; format: in vitro ADME
Procedure: as §1, §2, §3, §4, §5, §6, §7, §8, §9, §10
as §1, with “solvate” for “solvate,”, “rat” for “rat,”
as §11, §12
(§13) Aliquots of 50 μL were taken from the reaction solution at 0, 15, 30, 45 and 60 minutes. The reaction solutions were stopped by the addition of 4 volumes of cold methanol with IS (100 nM alprazolam, 200 nM imipramine, 200 nM labetalol and 2 μM ketoprofen). […]

[3] = Liver microsomes stability, rat; format: in vitro ADME
Procedure: as §1, §2, §3, §4, §5, §6, §7, §8, §9, §10
as §1, with “solvate” for “solvate,”, “rat” for “rat,”
as §11, §12, §13

[4] = Plasma protein binding by equilibrium dialysis, mouse; format: in vitro ADME; details: for recovery at 6 h, 1 µM: CD-1, mouse, plasma
Procedure: (§14) The final concentration of compound was 1 μM. The final concentration of DMSO was 0.5%. Ketoconazole was used as positive control in the assay.
(§15) The assay was performed in duplicate.
(§16) All calculations were carried out using Microsoft Excel. […] The percentages of bound compound were calculated as follows: […]
(§17) Ketoconazole was used as positive control in the assay.

[5] = Plasma protein binding by equilibrium dialysis, human; format: in vitro ADME; details: for recovery at 6 h, 1 µM / fraction unbound at 6 h, 1 μM: human, plasma; for fraction unbound at 6 h, 1 μM: read-out: % Bound (converted)
Procedure: as §14, §15, §16, §17

[6] = Plasma protein binding by equilibrium dialysis, dog; format: in vitro ADME; details: for recovery at 6 h, 1 µM: dog
Procedure: as §14, §15, §16, §17

[7] = Plasma protein binding by equilibrium dialysis, rat
Procedure: 1. The Frozen Plasma (Stored at −80° C.) was Thawed Immediately in a 37° C. Water Bath.
(§18) The working solution of test compounds and control compound was prepared in DMSO at the concentration of 200 μM, and then the working solution was spiked into plasma. The final concentration of compound was 1 μM. The final concentration of DMSO was 0.5%. Ketoconazole was used as positive control in the assay.
The dialysis membranes were soaked in ultrapure water for 60 minutes to separate strips, then in 20% ethanol for 20 minutes, finally in dialysis buffer for 20 minutes.
The dialysis set up was assembled according to the manufacturer's instruction. Each Cell was with 150 μL of plasma sample and dialyzed against equal volume of dialysis buffer (PBS). The assay was performed in duplicate. The dialysis plate was sealed and incubated in an incubator at 37° C. with 5% CO2 at 100 rpm for 6 hours. At the end of incubation, 50 μL of samples from both buffer and plasma chambers were transferred to wells of a 96-well plate.
50 μL of plasma was added to each buffer samples and an equal volume of PBS was supplemented to the collected plasma sample. 400 μL of precipitation buffer acetonitrile containing internal standards (IS, 200 nM labetalol, 100 nM tolbutamide and 100 nM ketoprofen) was added to precipitate protein and release compounds. Samples were vortexed for 2 minutes and centrifuged for 30 minutes at 3,220 g. Aliquot of 50 μL of the supernatant was diluted by 150 μL acetonitrile containing internal standards: ultra-pure H2O=1:1, and the mixture was used for LC-MS/MS analysis.
All calculations were carried out using Microsoft Excel. The concentrations of test compounds in the buffer and plasma chambers were determined from peak area ratios. The percentages of bound compound were calculated as follows: […]
as §18, with “[…].” for “μM.”

[8] = human liver microsomes, With Cofactors, 0 min
[9] = human liver microsomes, With Cofactors, 30 min
[10] = human liver microsomes, With Cofactors, 60 min
[11] = human liver microsomes, Without Cofactors, 0 min
[12] = human liver microsomes, Without Cofactors, 30 min
[13] = human liver microsomes, Without Cofactors, 60 min
[14] = mouse liver microsomes, With Cofactors, 0 min
[15] = mouse liver microsomes, With Cofactors, 30 min
[16] = mouse liver microsomes, With Cofactors, 60 min
[17] = mouse liver microsomes, Without Cofactors, 0 min
[18] = mouse liver microsomes, Without Cofactors, 30 min
[19] = mouse liver microsomes, Without Cofactors, 60 min
[20] = Rat liver microsomes, 2 μM, 0.5 mg/mL, NADPH
[21] = mouse plasma, equilibrium dialysis, 37° C., 6 hours
[22] = human plasma, equilibrium dialysis, 37° C., 6 hours

O=C(O)Cc1ccccc1Nc1c(Cl)cccc1Cl [Diclofenac]
Predicted hepatic CL ([1]; Human liver microsomes): 18.35 mL/min/kg | Scaled-up CLint ([1]; Human liver microsomes): 161.94 mL/min/kg | Predicted hepatic CL ([1]; human liver microsomes): 18.38 mL/min/kg | Scaled-up CLint ([1]; human liver microsomes): 164.18 mL/min/kg | Remaining Percentage [1, 8]: 100.00% | Remaining Percentage (%) 0 min [1, 8]: 100.00% | Remaining Percentage [1, 9]: 5.01% | Remaining Percentage (%) 30 min [1, 9]: 5.01% | Remaining Percentage [1, 10]: 1.77% | Remaining Percentage (%) 60 min [1, 10]: 1.77% | Remaining Percentage [1, 11]: 100.00% | Remaining Percentage (%) 0 min [1, 11]: 100.00% | Remaining Percentage [1, 12]: 112.67% | Remaining Percentage (%) 30 min [1, 12]: 112.67% | Remaining Percentage [1, 13]: 96.67% | Remaining Percentage (%) 60 min [1, 13]: 96.67% | Predicted hepatic CL ([2]; Mouse liver microsomes): 54.78 mL/min/kg | Scaled-up CLint ([2]; Mouse liver microsomes): 140.00 mL/min/kg | T1/2 ([2]; Mouse liver microsomes, 2 μM, 0.5 mg/mL, NADPH, <4.51 if % remaining at 30 min below 1%): 43.31 min | Predicted hepatic CL ([2]; mouse liver microsomes): 56.11 mL/min/kg | Scaled-up CLint ([2]; mouse liver microsomes): 149.03 mL/min/kg | CLint ([2]; mouse liver microsomes, 2 μM compound, 0.5 mg/mL microsomes): 34.06 μL/min/mg protein | Remaining Percentage [2, 14]: 100.00% | Remaining Percentage (%) 0 min [2, 14]: 100.00% | Remaining Percentage [2, 15]: 45.55% | Remaining Percentage (%) 30 min [2, 15]: 45.55% | Remaining Percentage [2, 16]: 33.71% | Remaining Percentage (%) 60 min [2, 16]: 33.71% | Remaining Percentage [2, 17]: 100.00% | Remaining Percentage (%) 0 min [2, 17]: 100.00% | Remaining Percentage [2, 18]: 89.49% | Remaining Percentage (%) 30 min [2, 18]: 89.49% | Remaining Percentage [2, 19]: 96.59% | Remaining Percentage (%) 60 min [2, 19]: 96.59% | Predicted hepatic CL ([3]; Rat liver microsomes): 41.25 mL/min/kg | Scaled-up CLint ([3]; Rat liver microsomes): 163.16 mL/min/kg | CLint [3, 20]: 91.05 μL/min/mg protein | T1/2 [3, 20]: 15.22 min | Remaining Percentage (%) 0 min ([3]; Rat liver microsomes, With Cofactors, 0 min): 100.00% | Remaining Percentage (%) 30 min ([3]; Rat liver microsomes, With Cofactors, 30 min): 11.86% | Remaining Percentage (%) 60 min ([3]; Rat liver microsomes, With Cofactors, 60 min): 6.35% | Remaining Percentage (%) 0 min ([3]; Rat liver microsomes, Without Cofactors, 0 min): 100.00% | Remaining Percentage (%) 30 min ([3]; Rat liver microsomes, Without Cofactors, 30 min): 102.19% | Remaining Percentage (%) 60 min ([3]; Rat liver microsomes, Without Cofactors, 60 min): 100.63% | Predicted hepatic CL ([3]; rat liver microsomes): 41.22 mL/min/kg | Scaled-up CLint ([3]; rat liver microsomes): 162.69 mL/min/kg | Remaining Percentage ([3]; rat liver microsomes, With Cofactors, 0 min): 100.00% | Remaining Percentage ([3]; rat liver microsomes, With Cofactors, 30 min): 11.86% | Remaining Percentage ([3]; rat liver microsomes, With Cofactors, 60 min): 6.35% | Remaining Percentage ([3]; rat liver microsomes, Without Cofactors, 0 min): 100.00% | Remaining Percentage ([3]; rat liver microsomes, Without Cofactors, 30 min): 102.19% | Remaining Percentage ([3]; rat liver microsomes, Without Cofactors, 60 min): 100.63%

CC(=O)N1CCN(c2ccc(OCC3COC(Cn4ccnc4)(c4ccc(Cl)cc4Cl)O3)cc2)CC1 (centres unmarked) [Ketoconazole, reference compound]
recovery at 6 h, 1 µM ([4]; Mouse plasma, 1 μM, equilibrium dialysis 6 hours): 109% | recovery at 6 h, 1 µM [4, 21]: 94.7% | fraction unbound at 6 h, 1 μM ([4]; CD-1, Mouse plasma, 1 μM, equilibrium dialysis 6 hours, 37° C., read-out: % Bound (converted)): 0.0068 | % Remaining @ 6 hours ([4]; Mouse plasma, 1 μM, 6 hours, 37° C.): 103.60% | % Remaining @ 6 hours ([4]; mouse plasma, 6 hours): 108.54% | % Bound [4, 21]: 99.32% | % Remaining @ 6 hours ([5]; Human plasma, 1 μM, 6 hours, 37° C.): 114.03% | % Remaining @ 6 hours ([5]; human plasma, 6 hours): 99.64% | recovery at 6 h, 1 µM ([5]; Human plasma, 1 μM, equilibrium dialysis 6 hours): 112% | fraction unbound at 6 h, 1 μM ([5]; Human plasma, 1 μM, equilibrium dialysis 6 hours, 37° C.): 0.0088 | recovery at 6 h, 1 µM [5, 22]: 101% | fraction unbound at 6 h, 1 μM [5, 22]: 0.0076 | recovery at 6 h, 1 µM ([6]; Beagle, Dog plasma, 1 μM, equilibrium dialysis 6 hours): 87.2% | recovery at 6 h, 1 µM ([6]; Beagle, dog plasma, equilibrium dialysis, 37° C., 6 hours): 86.1% | fraction unbound at 6 h, 1 μM ([6]; Beagle, dog plasma, equilibrium dialysis, 37° C., 6 hours, read-out: % Bound (converted)): 0.0105 | % Remaining @ 6 hours ([6]; Dog plasma, 1 μM, 6 hours, 37° C.): 92.22% | % Remaining @ 6 hours ([6]; dog plasma, 6 hours): 87.36% | % Remaining @ 6 hours ([7]; Rat plasma, 1 μM, 37° C.): 101.20% | recovery at 6 h, 1 µM ([7]; SD, rat): 105% | recovery at 6 h, 1 µM ([7]; Sprague-Dawley (SD), rat): 101% | fraction unbound at 6 h, 1 μM ([7]; Sprague-Dawley, rat, plasma): 0.0045 | % Remaining @ 6 hours ([7]; rat plasma): 109.42%
